According to ChEMBL document CHEMBL1150488 (1993):
Converted amounts (≈) assume the structure as drawn.

What was measured:
Streptococcus pyogenes = test: Tsted in vitro for its antibacterial activity against Streptococcus pyogenes UC152; assay type: functional
Escherichia coli = test: Tested in vitro for its antibacterial activity against Escherichia coli UC9379; assay type: functional
Bacteroides fragilis [1] = test: Tested for zone of inhibition against Bacteroides fragilis UC6513 (1 mg/mL, 80 microL/12.7 mm); assay type: functional
Staphylococcus aureus [2] = test: Tested for zone of inhibition against Staphylococcus aureus UC3665 (1 mg/mL, 80 microL/12.7 mm); assay type: functional
Staphylococcus aureus [3] = test: Tested for zone of inhibition against Staphylococcus aureus UC6685 (1 mg/mL, 80 microL/6.5 mm); assay type: functional
[4] = tested on: Staphylococcus epidermidis; test: Tested for zone of inhibition against Staphylococcus epidermidis UC719 (1 mg/mL, 80 microL/6.5 mm); assay type: functional
Clostridium perfringens [5] = test: The compound (1 mg/mL, 80 microL/12.7 mm) was tested for zone of inhibition against Clostridium perfringens UC6509; assay type: functional
Clostridium perfringens [6] = test: The compound (1 mg/mL, 80 microL/12.7 mm) was tested for zone of inhibition against Clostridium perfringens UC6509 (33H -, H: Hazy zone); assay type: functional
Fusobacterium nucleatum = test: Tested in vitro for its antibacterial activity against Fusobacterium nucleatum UC6324; assay type: functional
[7] = tested on: Parabacteroides distasonis; test: Tested in vitro for its antibacterial activity against Bacteroides distasonis UC6518; assay type: functional
[8] = tested on: Prevotella melaninogenica; test: Tested in vitro for its antibacterial activity against Bacteroides melaninogenicus UC 6523; assay type: functional
[9] = Tested in vitro for its antibacterial activity against Peptococcus variabilis UC6320; assay type: functional
Clostridium perfringens [10] = test: Tested in vitro for its antibacterial activity against Clostridium perfringens UC6509; assay type: functional
Bacteroides fragilis [11] = test: Tested in vitro for its antibacterial activity against Bacteroides fragilis UC9370 [clindamycin 1 micro g/mL]; assay type: functional
Cutibacterium acnes = test: Tested in vitro for its antibacterial activity against Propionibacterium acnes UC6564; assay type: functional
[12] = tested on: Bacteroides thetaiotaomicron; test: Tested in vitro for its antibacterial activity against Bacteroides thetaiotaomicron UC 9014[clindamycin 2 micro g/mL]; assay type: functional
Clostridium perfringens [13] = test: Tested for zone of inhibition against Clostridium perfringens UC6509; assay type: functional
Mycobacterium avium = test: The compound (1 mg/mL, 80 microL/12.7 mm) was tested for zone of inhibition against Mycobacterium avium UC159; Tr = trace; assay type: functional, organism-based
[14] = tested on: Staphylococcus epidermidis; test: The compound (1 mg/mL, 80 microL/6.5 mm) was tested for zone of inhibition against Staphylococcus epidermidis UC719; Tr = trace; assay type: functional, organism-based
[15] = tested on: Staphylococcus epidermidis; test: The compound (1 mg/mL, 80 microL/6.5 mm) was tested for zone of inhibition against Staphylococcus epidermidis UC719 (14H -, H: Hazy zone); assay type: functional
Staphylococcus aureus [16] = test: The compound (1 mg/mL, 80 microL/6.5 mm) was tested for zone of inhibition against Staphylococcus aureus UC6685; Tr = trace; assay type: functional, organism-based
Clostridium perfringens [17] = test: The compound (1 mg/mL, 80 microL/12.7 mm) was tested for zone of inhibition against Clostridium perfringens UC6509; Tr = trace; assay type: functional, organism-based
[18] = tested on: Bacteroides thetaiotaomicron; test: The compound was tested in vitro for its antibacterial activity against Bacteroides thetaiotaomicron UC 6360; assay type: functional
[19] = tested on: Bacteroides thetaiotaomicron; test: The compound (1 mg/mL, 80 microL/6.5 mm) was tested for zone of inhibition against Bacteroides thetaiotaomicron UC 6360; assay type: functional
Bacteroides fragilis [20] = test: The compound was tested in vitro for its antibacterial activity against Bacteroides fragilis UC9370; assay type: functional

| Structure (SMILES) | Diameter of inhibition zone (Bacteroides fragilis [1]) | Diameter of inhibition zone (Staphylococcus aureus [2]) | Diameter of inhibition zone (Staphylococcus aureus [3]) | Diameter of inhibition zone [4] | Diameter of inhibition zone (Clostridium perfringens [13]) | other results |
| --- | --- | --- | --- | --- | --- | --- |
| CO[C@@]1(NC(=O)C(C(=O)O)c2ccc(O)cc2)C(=O)N2C(C(=O)O)=C(CSc3nnnn3C)CO[C@@H]21 (some centres undefined) [MOXALACTAM] | – | – | – | – | – | MIC (Streptococcus pyogenes): 0.5 µg/mL (≈ 0.961 µM); MIC (Escherichia coli): 0.06 µg/mL (≈ 0.115 µM) |
| CCCC(=O)OC/C(C)=C1\CN(C(=O)CCC)C1=O | 25 mm | 0 mm | 0 mm | 0 mm | – | Diameter of inhibition zone (Clostridium perfringens [5]): 30 mm |
| CCCC(=O)N1C[C@H]([C@H](C)COC(C)=O)C1=O | 78 mm | 0 mm | 0 mm | 0 mm | – | Diameter of inhibition zone (Clostridium perfringens [6]): 33 mm; MIC (Fusobacterium nucleatum): 64 µg/mL (≈ 265 µM); MIC [7]: > 128 µg/mL; MIC [8]: 64 µg/mL (≈ 265 µM); MIC [9]: 64 µg/mL (≈ 265 µM); MIC (Clostridium perfringens [10]): > 128 µg/mL; MIC (Bacteroides fragilis [11]): > 128 µg/mL; MIC (Cutibacterium acnes): 32 µg/mL (≈ 133 µM); MIC [12]: 64 µg/mL (≈ 265 µM) |
| CCCC(=O)N1C/C(=C(/C)COC(C)=O)C1=O | 31 mm | 0 mm | 0 mm | 0 mm | – | – |
| CCCC(=O)N1C[C@H]([C@@H](C)COC(C)=O)C1=O | 36 mm | 0 mm | 0 mm | 0 mm | 0 mm | – |
| CCCCCC(=O)N1C/C(=C(\C)COC(C)=O)C1=O | 30 mm | 19 mm | 12 mm | 7 mm | 0 mm | – |
| CCCCCC(=O)N1C[C@H]([C@H](C)COC(C)=O)C1=O | – | 36 mm | 9 mm | 23 mm | – | – |
| CCCCCC(=O)N1C/C(=C(\C)CN=[N+]=[N-])C1=O | 52 mm | 27 mm | 27 mm | 19 mm | – | – |
| CCC[C@@H]1C[C@@H](C(=O)N[C@@H]([C@H]2O[C@H](SC)[C@H](O)[C@@H](O)[C@H]2O)[C@H](C)Cl)N(C)C1 [CLINDAMYCIN] | 30 mm | 0 mm | 0 mm | 22 mm | 24 mm | MIC (Fusobacterium nucleatum): < 0.12 µg/mL; MIC [7]: < 0.12 µg/mL; MIC [8]: < 0.12 µg/mL; MIC [9]: 1 µg/mL (≈ 2.35 µM); MIC (Clostridium perfringens [10]): < 0.12 µg/mL; MIC (Bacteroides fragilis [11]): < 0.12 µg/mL; MIC (Cutibacterium acnes): < 0.12 µg/mL; MIC [12]: 4 µg/mL (≈ 9.41 µM); Diameter of inhibition zone (Mycobacterium avium): Trace |
| CC(=O)OC[C@H](C)[C@H]1CN(C(C)=O)C1=O | 20 mm | 0 mm | 0 mm | 0 mm | 0 mm | – |
| CC(=O)OC/C(C)=C1/CN(C(C)=O)C1=O | 29 mm | 0 mm | 0 mm | 0 mm | 0 mm | – |
| CCCCCC(=O)N1C[C@H]([C@H](C)Cn2nnc(C(=O)OC)c2C(=O)OC)C1=O | 65 mm | 0 mm | 0 mm | 0 mm | – | – |
| CCCCOC(=O)N1C[C@H]([C@H](C)CNC(C)=O)C1=O | 36 mm | 0 mm | 0 mm | 0 mm | 19 mm | – |
| CCCC(=O)N1C/C(=C(\C)COC(C)=O)C1=O | 31 mm | 18 mm | 8 mm | – | 0 mm | Diameter of inhibition zone [14]: Trace |
| CCCC(=O)OC[C@H](C)[C@H]1CN(C(=O)CCC)C1=O | 41 mm | 0 mm | – | – | 33 mm | Diameter of inhibition zone [15]: 14 mm; Diameter of inhibition zone (Staphylococcus aureus [16]): Trace; MIC (Fusobacterium nucleatum): 256 µg/mL (≈ 950 µM); MIC [7]: 256 µg/mL (≈ 950 µM); MIC [8]: 64 µg/mL (≈ 238 µM); MIC [9]: 256 µg/mL (≈ 950 µM); MIC (Clostridium perfringens [10]): > 256 µg/mL; MIC (Bacteroides fragilis [11]): 256 µg/mL (≈ 950 µM); MIC (Cutibacterium acnes): 64 µg/mL (≈ 238 µM); MIC [12]: 128 µg/mL (≈ 475 µM) |
| CCCCCC(=O)N1C/C(=C(/C)COC2CCCCO2)C1=O (centres undefined) | 0 mm | 0 mm | 0 mm | 0 diameter mm | – | – |
| CCCCCC(=O)N1C/C(=C(/C)CO)C1=O | 27 mm | 0 mm | 0 mm | 0 mm | 28 mm | Diameter of inhibition zone (Mycobacterium avium): Trace |
| CCCCCC(=O)N1C/C(=C(\C)Cn2nnc(C(=O)OC)c2C(=O)OC)C1=O | 17 mm | 0 mm | – | 0 mm | 0 mm | Diameter of inhibition zone (Staphylococcus aureus [16]): Trace |
| CCCCOC(=O)N1C/C(=C(\C)CN=[N+]=[N-])C1=O | 37 mm | 30 mm | 39 mm | 32 mm | 36 mm | – |
| CCCC(=O)OC/C(C)=C1/CN(C(=O)CCC)C1=O | 21 mm | 0 mm | 0 mm | 0 mm | 0 mm | – |
| CCCCCC(=O)N1C[C@H]([C@H](C)CNC(C)=O)C1=O | 76 mm | 19 mm | – | – | – | Diameter of inhibition zone (Staphylococcus aureus [16]): Trace; Diameter of inhibition zone [14]: Trace |
| CCCC(=O)OC/C(C)=C1/CN(C(=O)c2ccccc2)C1=O | 0 mm | 16 mm | 0 mm | 0 mm | – | Diameter of inhibition zone (Clostridium perfringens [17]): Trace; Diameter of inhibition zone (Mycobacterium avium): Trace |
| C[C@H]1[C@H](NC(=O)/C(=N\OC(C)(C)C(=O)O)c2csc(N)n2)C(=O)N1S(=O)(=O)O [AZTREONAM] | – | – | – | – | – | MIC (Fusobacterium nucleatum): 4 µg/mL (≈ 9.19 µM); MIC [7]: 64 µg/mL (≈ 147 µM); MIC [8]: 4 µg/mL (≈ 9.19 µM); MIC (Cutibacterium acnes): 2 µg/mL (≈ 4.59 µM) |
| CC(=O)OC[C@@H](C)[C@H]1CN(C(C)=O)C1=O | 52 mm | 0 mm | 0 mm | – | 36 mm | MIC [18]: 128 µg/mL (≈ 600 µM); MIC (Streptococcus pyogenes): > 512 µg/mL; MIC (Fusobacterium nucleatum): 128 µg/mL (≈ 600 µM); MIC [7]: > 256 µg/mL; MIC [8]: 128 µg/mL (≈ 600 µM); MIC [9]: > 256 µg/mL; MIC (Clostridium perfringens [10]): > 256 µg/mL; MIC (Escherichia coli): > 512 µg/mL; Diameter of inhibition zone [19]: 0 mm; MIC (Cutibacterium acnes): > 256 µg/mL; MIC (Bacteroides fragilis [20]): 256 µg/mL (≈ 1200 µM) |
| CCCCCC(=O)N1C/C(=C(\C)CF)C1=O | 88 mm | 36 mm | 39 mm | 31 mm | 78 mm | – |
| CCCCCC(=O)OC[C@@H](C)[C@H]1CN(C(=O)CCCCC)C1=O | – | 31 mm | 24 mm | 8 mm | – | MIC (Streptococcus pyogenes): > 160 µg/mL; MIC (Fusobacterium nucleatum): 16 µg/mL (≈ 49.2 µM); MIC [7]: 256 µg/mL (≈ 787 µM); MIC [8]: 8 µg/mL (≈ 24.6 µM); MIC [9]: 256 µg/mL (≈ 787 µM); MIC (Clostridium perfringens [10]): 128 µg/mL (≈ 393 µM); MIC (Bacteroides fragilis [11]): 8 µg/mL (≈ 24.6 µM); MIC (Escherichia coli): > 160 µg/mL; MIC (Cutibacterium acnes): 4 µg/mL (≈ 12.3 µM); MIC [12]: 8 µg/mL (≈ 24.6 µM) |
| CCCCCC(=O)OC/C(C)=C1/CN(C(=O)CCCCC)C1=O | 0 mm | 0 mm | 0 mm | 0 mm | 0 mm | – |
